Reference: article PMC9230431, “Application of In Silico Filtering and Isothermal Titration Calorimetry for the Discovery of Small Molecule Inhibitors of MDM2” (Pharmaceuticals, 2022)
pKd: −log10 of the molar value. Read-outs that look alike come from different tables or passages of the source.

Target: T1, MDM2 (Homo sapiens, UniProt Q00987)
T1 construct: His tag-GB1-TEV site fusion expressed in E. coli BL21; His-GB1 removed by TEV cleavage
Test: ITC, MDM2 titrated into compound, single-site fit
Type: binding
Description: ITC, MDM2 titrated into compound, single-site fit on MDM2

T1 sequence (Q00987 5-125): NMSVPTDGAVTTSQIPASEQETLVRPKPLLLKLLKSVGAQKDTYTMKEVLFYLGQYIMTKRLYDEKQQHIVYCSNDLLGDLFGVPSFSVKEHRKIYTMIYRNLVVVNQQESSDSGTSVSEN

Compound	pKd	pKd (50 mM sodium phosphate pH 6.8, 150 mM NaCl, 5% DMSO, 1 mM TCEP)
O=S(=O)(NC(c1c[nH]c2cc(F)ccc12)C(Cl)(Cl)Cl)c1ccc(Cl)cc1 (stereo not shown) [M2-14]	5.91	
O=S(=O)(NC(c1c[nH]c2cccc(Cl)c12)C(Cl)(Cl)Cl)c1ccc(Cl)cc1 (stereo not shown) [M2-10]	6.24	
Cc1cccc(C)c1NC(=O)C(c1ccc(Cl)cc1)N1C(=O)CC1c1ccc(OC(C)C)cc1 (stereo not shown) [M1]	5.55	
COc1cc(Cl)ccc1S(=O)(=O)NC(c1c[nH]c2ccccc12)C(Cl)(Cl)Cl (stereo not shown) [M2-15]	5.50	
O=S(=O)(NC(c1c[nH]c2ccccc12)C(Cl)(Cl)Cl)c1ccc(Cl)cc1 (stereo not shown) [M2]	5.68	
Cc1ccc2c(C(NS(=O)(=O)c3ccc(Cl)cc3)C(Cl)(Cl)Cl)c[nH]c2c1 (stereo not shown) [M2-12]	6.07	
Cc1[nH]c2ccccc2c1C(NS(=O)(=O)c1ccc(Cl)cc1)C(Cl)(Cl)Cl (stereo not shown) [M2-3]		4.30
Cc1ccc(S(=O)(=O)NC(c2c[nH]c3cc(F)ccc23)C(Cl)(Cl)Cl)cc1 (stereo not shown) [M2-18]	5.88	
O=S(=O)(NC(c1c[nH]c2ccc(F)cc12)C(Cl)(Cl)Cl)c1ccc(Cl)cc1 (stereo not shown) [M2-8]	5.80	
O=S(=O)(NC(c1c[nH]c2cc(F)cc(F)c12)C(Cl)(Cl)Cl)c1ccc(Cl)cc1 (stereo not shown) [M2-13]	6.31	
COc1ccccc1-c1nnc(SC2CCCCC2=O)n1-c1ccc(Cl)cc1 (stereo not shown) [M3]	4.78	
Cc1cccc(C)c1NC(=O)C(c1ccc(Cl)cc1)N1C(=O)CC1c1cccc(C(F)(F)F)c1 (stereo not shown) [M1-7]	4.47	
Cc1cccc(C)c1NC(=O)C(c1ccc(Cl)cc1)N1C(=O)CC1c1ccsc1 (stereo not shown) [M1-10]	4.71	
Cc1ccc(C2CC(=O)N2C(C(=O)Nc2c(C)cccc2C)c2ccc(Cl)cc2)o1 (stereo not shown) [M1-11]	4.88	
O=S(=O)(NC(c1c[nH]c2cc(Cl)ccc12)C(Cl)(Cl)Cl)c1ccc(Cl)cc1 (stereo not shown) [M2-11]	6.15	
O=S(=O)(NC(c1c[nH]c2cccc(F)c12)C(Cl)(Cl)Cl)c1ccc(Cl)cc1 (stereo not shown) [M2-7]	6.01	
